Assay results as given in PMC4906958 (Journal of the American Chemical Society, 2016).

What was measured:
[1] = target: LeuT (leucine transporter) (Aquifex aeolicus, UniProt O67854); assay: radioligand binding by scintillation proximity assay
[2] = target: T1, MelB of E. coli (MelBEc) (Escherichia coli, UniProt P02921); assay: Trp to D2G FRET, reversed by melibiose, in detergent extract; format: cell-based
[3] = target: T1, MelB of E. coli (MelBEc); assay: melibiose reversal of Trp to D2G FRET in detergent extract; format: cell-based

T1 sequence (P02921 2-473): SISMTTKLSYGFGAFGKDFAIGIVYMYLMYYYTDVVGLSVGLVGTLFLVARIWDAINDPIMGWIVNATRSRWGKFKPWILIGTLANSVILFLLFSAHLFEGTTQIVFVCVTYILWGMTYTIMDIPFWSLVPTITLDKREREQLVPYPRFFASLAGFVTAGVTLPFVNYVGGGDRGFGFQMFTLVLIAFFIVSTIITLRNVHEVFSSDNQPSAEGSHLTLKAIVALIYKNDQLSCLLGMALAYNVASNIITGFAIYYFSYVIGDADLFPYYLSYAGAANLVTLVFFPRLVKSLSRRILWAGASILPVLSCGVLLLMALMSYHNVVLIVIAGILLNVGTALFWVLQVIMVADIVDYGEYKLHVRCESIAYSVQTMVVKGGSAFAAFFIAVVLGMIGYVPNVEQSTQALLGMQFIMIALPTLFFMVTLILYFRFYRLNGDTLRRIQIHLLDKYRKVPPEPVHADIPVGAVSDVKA

CC(C)C[C@H](N)C(=O)O [leucine]
radioligand binding by scintillation proximity assay (SPA) [1]: measuring the ability to bind a radio-labelled ligand ([^3H]-leucine) via scintillation proximity assay (SPA)

CN(C)c1cccc2c(S(=O)(=O)NCCS[C@@H]3O[C@H](CO)[C@H](O)[C@H](O)[C@H]3O)cccc12 [D2G, dansyl-2-galactoside]
Trp to D2G FRET, reversed by melibiose, in detergent extract [2]: Melibiose reversal of Trp to dansyl-2-galactoside (D^2G) FRET.

OC[C@H]1O[C@H](OC[C@H]2OC(O)[C@H](O)[C@@H](O)[C@@H]2O)[C@H](O)[C@@H](O)[C@H]1O (stereo partly drawn) [melibiose]
melibiose reversal of Trp to D2G FRET in detergent extract [3]: MelBEc in PSE-C11 maintained the melibiose binding, which is similar to that observed for the protein in MNG-3
